Holding throughout (type): cell-based
One data set has as its system L-type calcium channels. Put plainly: FLIPR L-type Calcium Channel Assay (calcium influx in HL-1 cells after KCl). The conditions noted are these: read-out: L-type Ca2+ IC50. On the procedure: HL-1 cells expressing endogenous L-type calcium channels are removed from culture flasks using trypsin, plated on fibronectin/gelatin-coated, clear-bottomed, black-walled 96-well microplates in Claycomb media (JRH Biosciences #51800) containing 10% fetal bovine serum, 4 mM L-glutamine, and 10 μM norepinephrine, and grown to confluency overnight. The next day, growth medium is aspirated from confluent cell monolayers and replaced with 100 μL per well Tyrode's solution (in mM: 130 NaCl, 4 KCl, 1.8 CaCl2, 1.0 MgCl2, 20 HEPES, 10 glucose, pH 7.35) and 50 μL per well FLIPR Calcium Assay kit, component A (#R-8033, Molecular Devices Corporation) and incubated for 60 min. in a 5% CO2 37° C. incubator. 50 μL per well test compounds are added to the plates and further incubated for 15 min. in a 5% CO2 37° C. incubator. All final solutions contain the anion exchange inhibitor, probenecid (2.5 mM). The 96-well plates are then placed in the center position of the FLIPR 1 (Fluorometric Imaging Plate Reader, Molecular Devices Corporation). Cell monolayers in each well are simultaneously illuminated at 488 nm with an Argon ion laser, and fluorescence emission is monitored using a 510-570 nm bandpass filter and a cooled CCD camera. To depolarize the plasma membrane and activate L-type calcium channels, 50 μL per well of 20 mM KCl (final concentration) are dispensed simultaneously to all 96 wells using the FLIPR's automatic 96-well pipettor. Fluorescence measurements are captured for 5 min. following KCl addition. Calcium influx, expressed as % control, is calculated for each concentration of test compound and concentration-response curves and IC50 values are generated using GraphPad Prism 4.0.

The next data set deals with T1, Kv1.5 (Homo sapiens, UniProt P22460).
T1 construct: expressed in transfected cells; host or cells: HEK or LTK- cells
Put plainly: Kv1.5 Patch Clamp EP (whole cell patch clamp; single point at 1 μM and IC50). The note with it: for IC50: concentration response; for inhibition at 1 µM: single point at 1.0 μM, Kv1.5 stably over expressed in HEK or LTK- cells. On the procedure: The external solution is standard Tyrodes solution. […] Inhibition was measured at the end of the 1 second pulses and expressed relative to controls. Initial Kv1.5 inhibition is estimated by single point determinations done at 1 μM.
In general terms: The patch-clamp technique gives a direct electrical read-out from membranes.

In the next data set the target is T2, HERG (Homo sapiens, UniProt Q12809).
T2 construct: expressed in transfected cells; host or cells: HEK cells
Put plainly: HERG Patch Clamp EP (whole cell patch clamp, tail currents; single point at 10 μM and IC50). The note with it: for inhibition at 10 µM: human, HEK cells stably overexpressing HERG, single point at 10 μM, HERG in HEK cells, read-out: HERG % Inhib. @ 10 μM; for IC50: concentration response. An excerpt: The external solution is standard Tyrodes solution.

T2 sequence (Q12809 whole entry): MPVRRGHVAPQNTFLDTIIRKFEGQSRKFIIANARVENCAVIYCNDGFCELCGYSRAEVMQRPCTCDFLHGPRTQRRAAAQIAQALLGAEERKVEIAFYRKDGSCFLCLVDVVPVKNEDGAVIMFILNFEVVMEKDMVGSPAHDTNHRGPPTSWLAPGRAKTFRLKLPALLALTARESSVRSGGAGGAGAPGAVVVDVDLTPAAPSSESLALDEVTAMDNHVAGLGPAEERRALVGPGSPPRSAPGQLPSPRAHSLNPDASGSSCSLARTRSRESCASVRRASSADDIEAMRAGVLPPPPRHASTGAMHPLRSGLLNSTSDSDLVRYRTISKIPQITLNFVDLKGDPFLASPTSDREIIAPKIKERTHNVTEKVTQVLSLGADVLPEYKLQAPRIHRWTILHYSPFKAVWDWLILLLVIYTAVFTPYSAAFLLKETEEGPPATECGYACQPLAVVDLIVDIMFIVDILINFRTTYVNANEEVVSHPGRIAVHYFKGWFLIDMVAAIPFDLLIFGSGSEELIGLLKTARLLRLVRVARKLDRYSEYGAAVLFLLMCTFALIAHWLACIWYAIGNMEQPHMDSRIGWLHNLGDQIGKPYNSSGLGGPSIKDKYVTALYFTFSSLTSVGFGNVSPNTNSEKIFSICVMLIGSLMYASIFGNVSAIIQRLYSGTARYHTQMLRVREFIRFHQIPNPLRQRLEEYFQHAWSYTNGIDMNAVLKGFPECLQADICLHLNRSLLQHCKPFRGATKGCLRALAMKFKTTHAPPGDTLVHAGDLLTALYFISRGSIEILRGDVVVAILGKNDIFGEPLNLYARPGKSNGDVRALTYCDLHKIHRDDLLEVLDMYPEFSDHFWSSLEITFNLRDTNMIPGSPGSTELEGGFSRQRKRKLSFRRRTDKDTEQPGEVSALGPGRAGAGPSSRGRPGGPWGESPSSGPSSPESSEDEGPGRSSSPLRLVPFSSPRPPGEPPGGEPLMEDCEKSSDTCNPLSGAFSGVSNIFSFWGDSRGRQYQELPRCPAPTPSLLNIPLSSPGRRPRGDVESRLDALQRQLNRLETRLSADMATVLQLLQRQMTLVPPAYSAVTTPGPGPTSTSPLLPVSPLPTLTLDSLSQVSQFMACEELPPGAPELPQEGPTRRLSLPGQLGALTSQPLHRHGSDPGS
T1 sequence (P22460 whole entry): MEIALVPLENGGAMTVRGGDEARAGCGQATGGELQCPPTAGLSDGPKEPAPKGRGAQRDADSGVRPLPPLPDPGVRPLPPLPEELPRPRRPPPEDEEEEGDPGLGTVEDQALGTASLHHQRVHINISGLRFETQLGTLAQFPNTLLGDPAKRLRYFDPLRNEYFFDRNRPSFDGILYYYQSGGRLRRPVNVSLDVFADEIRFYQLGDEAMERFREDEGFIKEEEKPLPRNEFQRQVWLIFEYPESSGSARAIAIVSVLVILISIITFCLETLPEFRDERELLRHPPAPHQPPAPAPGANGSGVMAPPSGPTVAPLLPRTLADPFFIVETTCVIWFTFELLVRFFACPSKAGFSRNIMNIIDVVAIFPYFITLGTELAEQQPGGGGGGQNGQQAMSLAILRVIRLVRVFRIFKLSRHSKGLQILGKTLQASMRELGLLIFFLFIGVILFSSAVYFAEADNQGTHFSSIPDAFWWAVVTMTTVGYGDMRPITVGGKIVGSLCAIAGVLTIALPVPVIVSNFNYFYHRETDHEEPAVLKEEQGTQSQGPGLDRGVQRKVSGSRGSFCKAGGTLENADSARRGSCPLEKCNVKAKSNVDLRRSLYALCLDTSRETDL

Turning to `COc1ccc(CCN2C(=O)C3(CCN(C(=O)NC(C)C)CC3)N(C)C2c2ccc(C3CC3)cc2)cc1` (stereo not shown) [Compound 16, 2-(4-Cyclopropylphenyl)-3-[2-(4-methoxyphenyl)ethyl]-1-methyl-4-oxo-1,3,8-triaza-spiro[4.5]decane-8-carboxylic acid isopropylamide], the IC50 in the data set on L-type calcium channels is 13 µM. For the same compound, at Kv1.5, half-maximal inhibition (IC50) required 319 nM and the inhibition at 1 µM turned out to be 92%. Besides, the inhibition at 10 µM on HERG was determined as 48%.

For `COc1ccc(CCN2C(=O)C3(CCN(C(=O)NC4CCCC4)CC3)N(C)C2c2ccc(C3CC3)cc2)cc1` (stereo not shown) [Compound 20, 2-(4-Cyclopropylphenyl)-3-[2-(4-methoxyphenyl)ethyl]-1-methyl-4-oxo-1,3,8-triaza-spiro[4.5]decane-8-carboxylic acid cyclopentylamide], the 50% inhibitory concentration (IC50) in the data set on L-type calcium channels came to 8 µM. On Kv1.5, 186 nM corresponded to half-maximal inhibition (IC50) and the inhibition at 1 µM turned out to be 93%. In addition, at HERG, the IC50 stood at 4 µM and the inhibition at 10 µM came out at 86%.

Turning to `COc1ccc(CCN2C(=O)C3(CCN(C(=O)N4CCC4)CC3)N(C)C2c2ccc(C3CC3)cc2)cc1` (stereo not shown) [Compound 21, 2-(4-cyclopropylphenyl)-3-[2-(4-methoxyphenyl)ethyl]-1-methyl-8-(azetidin-1-ylcarbonyl)-1,3,8-triaza-spiro[4.5]decan-4-one], in the data set on L-type calcium channels, the IC50 is 11 µM. The compound further displayed an inhibition at 1 µM against Kv1.5 of 97%. On HERG, the inhibition at 10 µM came out at 54%.

For `COc1ccc(CCN2C(=O)C3(CCN(C(=O)N4CCN(C)CC4)CC3)N(C)C2c2ccc(C3CC3)cc2)cc1` (stereo not shown) [Compound 22, 2-(4-Cyclopropylphenyl)-3-[2-(4-methoxyphenyl)ethyl]-1-methyl-8-[(4-methylpiperazin-1-yl)carbonyl]-1,3,8-triaza-spiro[4.5]decan-4-one], the IC50 in the data set with L-type calcium channels was 18 µM. This compound also returned an inhibition at 1 µM on Kv1.5 of 51%. Besides, at HERG, the inhibition at 10 µM is 58%.

In the case of `COc1ccc(CCN2C(=O)C3(CCN(C(=O)N4CCCC4)CC3)N(C)C2c2ccc(C3CC3)cc2)cc1` (stereo not shown) [Compound 23, 2-(4-Cyclopropylphenyl)-3-[2-(4-methoxyphenyl)ethyl]-1-methyl-8-(pyrrolidin-1-ylcarbonyl)-1,3,8-triaza-spiro[4.5]decan-4-one], in the data set with L-type calcium channels, the IC50 was 6.6 µM. On Kv1.5, this compound registered an IC50 of 181 nM and an inhibition at 1 µM of 96%. For the same compound, on HERG, 6.2 µM corresponded to half-maximal inhibition (IC50) and the inhibition at 10 µM is 77%.

For the compound `COc1ccc(CCN2C(=O)C3(CCN(C(=O)N4CCOCC4)CC3)N(C)C2c2ccc(C3CC3)cc2)cc1` (stereo not shown) [Compound 24, 2-(4-Cyclopropylphenyl)-3-[2-(4-methoxyphenyl)ethyl]-1-methyl-8-(morpholin-4-ylcarbonyl)-1,3,8-triaza-spiro[4.5]decan-4-one], in the data set with L-type calcium channels, the IC50 came out at 13 µM. Further, the inhibition at 1 µM at Kv1.5 is 82%. For the same compound, at HERG, the inhibition at 10 µM was 27%.

`CONC(=O)N1CCC2(CC1)C(=O)N(CCc1ccc(OC)cc1)C(c1ccc(C3CC3)cc1)N2C` (stereo not shown) [Compound 25, 2-(4-cyclopropylphenyl)-N-methoxy-3-[2-(4-methoxyphenyl)ethyl]-1-methyl-4-oxo-1,3,8-triazaspiro[4.5]decane-8-carboxamide]: the IC50 with L-type calcium channels worked out at 17 µM. At Kv1.5, this compound came in with an inhibition at 1 µM of 82%. For the same compound, on HERG, the inhibition at 10 µM was determined as 23%.

As for `COc1ccc(CCN2C(=O)C3(CCN(C(=O)NO)CC3)N(C)C2c2ccc(C3CC3)cc2)cc1` (stereo not shown) [Compound 26, 2-(4-Cyclopropylphenyl)-N-hydroxy-3-[2-(4-methoxyphenyl)ethyl]-1-methyl-4-oxo-1,3,8-triazaspiro[4.5]decane-8-carboxamide], in the data set on L-type calcium channels, the IC50 was 24 µM. The inhibition at 1 µM at Kv1.5 turned out to be 65%. Also, on HERG, the inhibition at 10 µM stood at 5%.

Turning to `CCONC(=O)N1CCC2(CC1)C(=O)N(CCc1ccc(OC)cc1)C(c1ccc(C3CC3)cc1)N2C` (stereo not shown) [Compound 27, 2-(4-cyclopropylphenyl)-N-ethoxy-3-(4-methoxyphenethyl)-1-methyl-4-oxo-1,3,8-triazaspiro[4.5]decane-8-carboxamide], the IC50 with L-type calcium channels was found to be 20 µM. In addition, on Kv1.5, the inhibition at 1 µM is 87%. Also, the inhibition at 10 µM at HERG is 35%.

Turning to `COc1ccc(CCN2C(=O)C3(CCN(C(=O)NNC(=O)OC(C)(C)C)CC3)N(C)C2c2ccc(C3CC3)cc2)cc1` (stereo not shown) [Compound 29, tert-Butyl 2-({2-(4-cyclopropylphenyl)-3-[2-(4-methoxyphenyl)ethyl]-1-methyl-4-oxo-1,3,8-triazaspiro[4.5]dec-8-yl}carbonyl)hydrazine carboxylate], in the data set on L-type calcium channels, the IC50 was 8 µM. This compound also gave an inhibition at 1 µM against Kv1.5 of 83%. The inhibition at 10 µM at HERG is 31%.

For `COc1ccc(CCN2C(=O)C3(CCN(C(N)=NC#N)CC3)N(C)C2c2ccc(OC)cc2)cc1` (stereo not shown) [Compound 30, N′-cyano-2-(4-methoxyphenyl)-3-[2-(4-methoxyphenyl)ethyl]-1-methyl-4-oxo-1,3,8-triazaspiro[4.5]decane-8-carboximidamide], the IC50 with L-type calcium channels worked out at 21 µM. On Kv1.5, this compound gave an IC50 of 166 nM and an inhibition at 1 µM of 93%. Also, at HERG, the IC50 is 6 µM and the inhibition at 10 µM is 91%.

Turning to `COc1ccc(CCN2C(=O)C3(CCN(C(N)=NC#N)CC3)N(C)C2c2ccc(C3CC3)cc2)cc1` (stereo not shown) [Compound 31, 8-(Cyano-1-carboxamidine)-2-(4-cyclopropylphenyl)-3-[2-(4-methoxyphenyl)-ethyl]-1-methyl-1,3,8-triaza-spiro[4.5]decan-4-one], in the data set on L-type calcium channels, the IC50 came out at 26 µM. The same compound came in with an inhibition at 1 µM at Kv1.5 of 75%. Besides, the inhibition at 10 µM on HERG was 25%.

Turning to `COc1ccc(CCN2C(=O)C3(CCN(S(C)(=O)=O)CC3)N(C)C2c2ccc(C3CC3)cc2)cc1` (stereo not shown) [Compound 32, 2-(4-cyclopropylphenyl)-8-methanesulfonyl-3-[2-(4-methoxy-phenyl)ethyl]-1-methyl-1,3,8-triaza-spiro[4.5]decan-4-one], in the data set with L-type calcium channels, the IC50 was determined as 13 µM. For the same compound, the inhibition at 1 µM on Kv1.5 was determined as 90%. Besides, on HERG, the inhibition at 10 µM amounted to 57%.

In the case of `COc1ccc(CCN2C(=O)C3(CCN(S(C)(=O)=O)CC3)N(C)C2c2ccc(C(C)(C)C)cc2)cc1` (stereo not shown) [Compound 33, 2-(4-tert-Butylphenyl)-8-methanesulfonyl-3-[2-(4-methoxyphenyl)ethyl]-1-methyl-1,3,8-triaza-spiro[4.5]decan-4-one], the IC50 with L-type calcium channels stood at 25 µM. On Kv1.5, this compound came in with an inhibition at 1 µM of 80%. At HERG, the inhibition at 10 µM worked out at 54%.

On to `COc1ccc(CCN2C(=O)C3(CCN(S(C)(=O)=O)CC3)N(C)C2c2ccc(C(F)(F)F)cc2)cc1` (stereo not shown) [Compound 34, 2-(4-Trifluoromethylphenyl)-8-methanesulfonyl-3-[2-(4-methoxyphenyl)ethyl]-1-methyl-1,3,8-triaza-spiro[4.5]decan-4-one], for which the IC50 in the data set with L-type calcium channels came out at 18 µM. For the same compound, the inhibition at 1 µM on Kv1.5 was 80%. In addition, the inhibition at 10 µM on HERG turned out to be 50%.

`CCOC(=O)N1CCC2(CC1)C(=O)N(CCc1ccc(OC)cc1)C(c1ccc(C3CC3)cc1)N2C` (stereo not shown) [Compound 35, Ethyl 2-(4-cyclopropylphenyl)-3-[2-(4-methoxyphenyl)ethyl]-1-methyl-4-oxo-1,3,8-triazaspiro[4.5]decane-8-carboxylate]: in the data set on L-type calcium channels, the IC50 turned out to be 30 µM. The compound also came in with an inhibition at 1 µM on Kv1.5 of 96%. Besides, on HERG, the inhibition at 10 µM came to 65%.

With `COc1ccc(CCN2C(=O)C3(CCN(C(=O)OC(C)(C)C)CC3)N(C)C2c2ccc(OC)cc2)cc1` (stereo not shown) [Compound 37, tert-Butyl 2-(4-methoxyphenyl)-3-[2-(4-methoxyphenyl)ethyl]-1-methyl-4-oxo-1,3,8-triazaspiro[4.5]decane-8-carboxylate], the IC50 in the data set on L-type calcium channels was 14 µM. The inhibition at 1 µM against Kv1.5 was 83%. At HERG, the inhibition at 10 µM came out at 12%.

On to `COc1ccc(CCN2C(=O)C3(CCN(C(=O)c4ccno4)CC3)N(C)C2c2ccc(C3CC3)cc2)cc1` (stereo not shown) [Compound 42, 2-(4-Cyclopropylphenyl)-8-(isoxazol-5-yl-carbonyl)-3-[2-(4-methoxyphenyl)ethyl]-1-methyl-1,3,8-triazaspiro[4.5]decan-4-one], for which the IC50 in the data set with L-type calcium channels worked out at 23 µM. Further, the inhibition at 1 µM against Kv1.5 was determined as 94%. At HERG, the inhibition at 10 µM was 81%.

As to `CC(=O)N1CCC2(CC1)C(=O)N(CCCc1ccccc1)C(c1ccc(C3CC3)cc1)N2C` (stereo not shown) [Compound 44, 8-Acetyl-2-(4-cyclopropylphenyl)-3-(3-phenylpropyl)-1-methyl-1,3,8-triazaspiro-[4.5]decan-4-one], the IC50 with L-type calcium channels amounted to 15 µM. Besides, the inhibition at 1 µM against Kv1.5 worked out at 73%. Further, the inhibition at 10 µM at HERG is 61%.

In general, IC50 refers to the concentration that inhibits the measured activity by half.
